Assays:
[1] = biological target: Dopamine D4.2 receptor (Human) (Homo sapiens, UniProt P21917, DEL265-296); assay: [3H]-Spiperone binding assay; conditions: 0.1 mM l-menthol; Human recombinant
[2] = tested on: Ca channel (Type L, Phenylalkylamine); assay: [3H]-; type: binding; conditions: 0.1 mM l-menthol; Rat cerebral cortex
[3] = tested on: GABA A receptor (Picrotoxin site); assay: [3H]-EBOB binding assay; parameters: species or system Rat
[4] = biological target: Angiotensin AT1 receptor (Human) (Homo sapiens, UniProt P30556); assay: [125I]-Angiotensin II; type: binding; conditions: 0.1 mM l-menthol; Human recombinant
Leukotriene B4 receptor = assay: [3H]-Leukotriene B4 binding assay; conditions: 0.1 mM l-menthol; Guinea pig lung
[5] = biological target: α2A-Adrenergic receptor (Human) (Homo sapiens, UniProt P08913); assay: [3H]-Rauwolscine hydrochloride binding assay; conditions: 0.1 mM l-menthol; Human recombinant
α2A-Adrenergic receptor (Human), sequence (P08913 whole entry): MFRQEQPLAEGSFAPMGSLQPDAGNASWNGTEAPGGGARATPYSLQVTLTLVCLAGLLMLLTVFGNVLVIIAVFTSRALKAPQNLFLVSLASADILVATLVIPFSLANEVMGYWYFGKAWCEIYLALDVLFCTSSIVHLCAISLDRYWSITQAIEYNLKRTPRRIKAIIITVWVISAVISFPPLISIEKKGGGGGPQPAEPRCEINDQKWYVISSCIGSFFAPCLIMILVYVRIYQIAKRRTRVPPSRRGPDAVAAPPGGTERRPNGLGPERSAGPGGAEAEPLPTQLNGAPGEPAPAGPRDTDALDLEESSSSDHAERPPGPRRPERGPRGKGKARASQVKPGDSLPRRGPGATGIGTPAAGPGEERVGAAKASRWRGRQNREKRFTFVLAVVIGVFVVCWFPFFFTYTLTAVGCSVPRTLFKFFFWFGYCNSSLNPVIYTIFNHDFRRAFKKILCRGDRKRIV

[6] = biological target: Serotonin 5HT2A receptor (Human) (Homo sapiens, UniProt P28223); assay: [3H]-Ketanserin hydrochloride binding assay; conditions: 0.1 mM l-menthol; Human recombinant
Serotonin 5HT2A receptor (Human), sequence (P28223 whole entry): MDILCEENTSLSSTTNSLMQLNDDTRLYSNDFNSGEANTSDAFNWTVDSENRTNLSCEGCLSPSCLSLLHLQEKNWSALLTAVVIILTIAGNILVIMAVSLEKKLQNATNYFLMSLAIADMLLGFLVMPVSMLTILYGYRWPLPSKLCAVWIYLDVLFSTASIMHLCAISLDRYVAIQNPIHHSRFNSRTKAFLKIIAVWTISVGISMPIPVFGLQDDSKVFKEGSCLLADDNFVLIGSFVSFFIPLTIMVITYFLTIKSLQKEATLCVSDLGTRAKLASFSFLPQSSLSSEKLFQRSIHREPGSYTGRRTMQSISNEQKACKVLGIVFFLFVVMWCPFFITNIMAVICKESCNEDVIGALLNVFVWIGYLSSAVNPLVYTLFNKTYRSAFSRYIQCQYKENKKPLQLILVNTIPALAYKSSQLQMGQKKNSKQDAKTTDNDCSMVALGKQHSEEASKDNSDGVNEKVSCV

[7] = biological target: Norepinephrine transporter (Human) (Homo sapiens, UniProt P23975); assay: [3H]-Nisoxetine hydrochloride binding assay; conditions: 0.1 mM l-menthol; Human recombinant
[8] = biological target: Dopamine D3 receptor (Human) (Homo sapiens, UniProt P35462); assay: R-; type: binding; conditions: 0.1 mM l-menthol; Human recombinant
[9] = biological target: Neurokinin NK2 receptor (Human) (Homo sapiens, UniProt P21452); assay: [3H]-SR 48968 binding assay; conditions: 0.1 mM l-menthol; Human recombinant
K channel KA = assay: [125I]-Dendrotoxin binding assay; conditions: 0.1 mM l-menthol; Rat cerebral cortex
[10] = biological target: Opiate κ receptor (Human) (Homo sapiens, UniProt P41145); type: binding; conditions: 0.1 mM l-menthol
Opiate κ receptor (Human), sequence (P41145 whole entry): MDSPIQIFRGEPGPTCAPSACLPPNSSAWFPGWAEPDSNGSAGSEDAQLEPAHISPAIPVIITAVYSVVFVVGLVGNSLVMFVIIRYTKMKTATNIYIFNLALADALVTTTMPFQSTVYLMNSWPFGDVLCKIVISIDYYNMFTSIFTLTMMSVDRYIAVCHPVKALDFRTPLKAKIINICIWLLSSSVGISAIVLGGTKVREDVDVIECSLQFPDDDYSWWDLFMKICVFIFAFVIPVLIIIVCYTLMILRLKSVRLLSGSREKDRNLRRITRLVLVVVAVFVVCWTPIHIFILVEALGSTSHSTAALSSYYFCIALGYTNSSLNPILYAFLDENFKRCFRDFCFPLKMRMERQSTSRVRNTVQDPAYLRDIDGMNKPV

[11] = biological target: Neurokinin NK3 receptor (Human) (Homo sapiens, UniProt P29371); assay: [125I]-Neurokinin B; type: binding; conditions: 0.1 mM l-menthol; Human recombinant
Neurokinin NK3 receptor (Human), sequence (P29371 whole entry): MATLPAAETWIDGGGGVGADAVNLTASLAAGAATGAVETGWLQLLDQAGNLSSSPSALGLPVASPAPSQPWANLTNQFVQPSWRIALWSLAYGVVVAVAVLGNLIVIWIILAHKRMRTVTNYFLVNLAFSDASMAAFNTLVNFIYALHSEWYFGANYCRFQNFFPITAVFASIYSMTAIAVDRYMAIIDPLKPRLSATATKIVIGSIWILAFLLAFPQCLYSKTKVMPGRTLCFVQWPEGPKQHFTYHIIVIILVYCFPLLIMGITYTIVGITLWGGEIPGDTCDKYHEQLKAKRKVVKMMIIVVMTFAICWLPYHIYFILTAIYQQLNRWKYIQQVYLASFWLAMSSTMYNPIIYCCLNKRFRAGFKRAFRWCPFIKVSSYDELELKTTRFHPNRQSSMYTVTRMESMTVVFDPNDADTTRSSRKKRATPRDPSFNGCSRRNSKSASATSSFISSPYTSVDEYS

[12] = tested on: Glutamate (NMDA polyamine site); assay: [3H]-Ifenprodil binding assay; conditions: 0.1 mM l-menthol; Rat cerebral cortex
[13] = biological target: Neurokinin NK1 receptor (Human) (Homo sapiens, UniProt P25103); assay: [125I]-Substance P binding assay; conditions: 0.1 mM l-menthol; Human recombinant
Neurokinin NK1 receptor (Human), sequence (P25103 whole entry): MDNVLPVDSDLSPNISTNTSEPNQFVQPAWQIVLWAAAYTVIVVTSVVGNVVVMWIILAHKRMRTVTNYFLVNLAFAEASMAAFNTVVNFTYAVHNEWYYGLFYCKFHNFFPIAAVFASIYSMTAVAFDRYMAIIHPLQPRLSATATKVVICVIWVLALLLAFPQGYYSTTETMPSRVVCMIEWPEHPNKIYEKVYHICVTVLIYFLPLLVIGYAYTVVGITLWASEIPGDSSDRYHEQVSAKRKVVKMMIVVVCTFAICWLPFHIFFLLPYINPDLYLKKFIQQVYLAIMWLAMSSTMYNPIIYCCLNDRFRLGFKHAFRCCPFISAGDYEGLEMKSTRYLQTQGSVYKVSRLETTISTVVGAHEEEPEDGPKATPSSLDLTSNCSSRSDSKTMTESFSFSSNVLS

CCK B receptor (Human) = CCK B receptor (Human) (Homo sapiens, UniProt P32239); assay: [125I]-Cholecystokinin Octapeptide binding assay; conditions: 0.1 mM l-menthol; Human recombinant
K Channel SkCa = assay: [125I]-Apamin binding assay; conditions: 0.1 mM l-menthol; Rat whole brain
[14] = biological target: Serotonin 5HT3 receptor (Human) (Homo sapiens, UniProt P46098); assay: [3H]-GR65630 binding assay; conditions: 0.1 mM l-menthol; Human recombinant
α1B-Adrenergic receptor = α1B-Adrenergic receptor (Rattus norvegicus, UniProt P15823); assay: [3H]-Prazosin binding assay; conditions: 0.1 mM l-menthol; Rat liver
[15] = tested on: Ca Channel (Type L, Dihydropyridine); assay: [3H]-PN200-110 binding assay; conditions: 0.1 mM l-menthol; Rat cerebral cortex
[16] = biological target: Neuropeptide Y1 receptor (Human) (Homo sapiens, UniProt P25929); assay: [125I]-Peptide YY; type: binding; conditions: 0.1 mM l-menthol; Human receptor (Non-recombinant)
[17] = biological target: Prostanoid EP2 receptor (Human) (Homo sapiens, UniProt P43116); assay: [3H]-Prostaglandin E2 binding assay; conditions: 0.1 mM l-menthol; Human recombinant
Prostanoid EP2 receptor (Human), sequence (P43116 whole entry): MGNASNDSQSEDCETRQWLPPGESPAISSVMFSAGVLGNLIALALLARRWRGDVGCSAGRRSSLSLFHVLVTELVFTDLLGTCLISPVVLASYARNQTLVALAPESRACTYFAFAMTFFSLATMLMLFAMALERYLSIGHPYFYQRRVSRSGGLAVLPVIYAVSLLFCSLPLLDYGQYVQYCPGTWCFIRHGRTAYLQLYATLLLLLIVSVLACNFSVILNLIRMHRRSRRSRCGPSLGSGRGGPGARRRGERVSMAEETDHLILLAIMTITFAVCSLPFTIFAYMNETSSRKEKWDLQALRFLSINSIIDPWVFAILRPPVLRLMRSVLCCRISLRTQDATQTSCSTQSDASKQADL

[18] = biological target: Muscarinic M2 receptor (Human) (Homo sapiens, UniProt P08172); assay: [3H]-Scopolamine Methyl Chloride binding assay; conditions: 0.1 mM l-menthol; Human recombinant
Muscarinic M2 receptor (Human), sequence (P08172 whole entry): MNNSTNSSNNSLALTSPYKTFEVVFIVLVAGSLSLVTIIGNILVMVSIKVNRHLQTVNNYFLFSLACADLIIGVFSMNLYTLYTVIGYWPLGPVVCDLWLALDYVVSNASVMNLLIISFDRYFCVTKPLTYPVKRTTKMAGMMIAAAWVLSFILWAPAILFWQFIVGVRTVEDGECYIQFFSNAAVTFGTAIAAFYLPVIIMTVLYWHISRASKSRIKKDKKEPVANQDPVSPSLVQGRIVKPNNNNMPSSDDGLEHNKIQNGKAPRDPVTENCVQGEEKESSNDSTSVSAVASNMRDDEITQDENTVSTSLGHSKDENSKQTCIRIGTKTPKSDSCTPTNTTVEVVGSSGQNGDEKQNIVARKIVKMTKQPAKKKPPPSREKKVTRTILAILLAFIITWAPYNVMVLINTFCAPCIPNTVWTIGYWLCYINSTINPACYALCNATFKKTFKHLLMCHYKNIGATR

[19] = biological target: Opiate δ receptor (Human) (Homo sapiens, UniProt P41143); assay: [3H]-Naltrindole binding assay; conditions: 0.1 mM l-menthol; Human recombinant
IP3 receptor = assay: D-[3H]-Inositol-1,4,5-Triphosphate binding assay; conditions: 0.1 mM l-menthol; Rat cerebellum
[20] = biological target: β2-Adrenergic receptor (Human) (Homo sapiens, UniProt P07550); assay: [3H]-; type: binding; conditions: 0.1 mM l-menthol; Human recombinant
[21] = biological target: Angiotensin AT2 receptor (Human) (Homo sapiens, UniProt P50052); assay: [125I]-CGP-42112A binding assay; conditions: 0.1 mM l-menthol; Human recombinant
Angiotensin AT2 receptor (Human), sequence (P50052 whole entry): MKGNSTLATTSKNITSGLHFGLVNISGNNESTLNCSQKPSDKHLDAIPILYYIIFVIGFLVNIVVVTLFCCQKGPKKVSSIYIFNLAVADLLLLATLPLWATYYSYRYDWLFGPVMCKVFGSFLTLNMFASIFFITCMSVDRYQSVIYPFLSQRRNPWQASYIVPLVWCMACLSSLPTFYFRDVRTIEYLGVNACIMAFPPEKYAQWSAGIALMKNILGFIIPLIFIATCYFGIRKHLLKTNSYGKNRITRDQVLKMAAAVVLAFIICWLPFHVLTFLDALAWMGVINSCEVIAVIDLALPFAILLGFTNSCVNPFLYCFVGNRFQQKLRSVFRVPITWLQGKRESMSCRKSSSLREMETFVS

Ca Channel (Type N) = Ca Channel (Type N) (Rattus norvegicus, UniProt Q02294); type: binding
CRF1 receptor (Human) = biological target: T1, CRF1 receptor (Human) (Homo sapiens, UniProt P34998); assay: [125I]-Corticotropin Releasing Factor; type: binding; conditions: 0.1 mM l-menthol; Human recombinant
T1 sequence (P34998 24-415): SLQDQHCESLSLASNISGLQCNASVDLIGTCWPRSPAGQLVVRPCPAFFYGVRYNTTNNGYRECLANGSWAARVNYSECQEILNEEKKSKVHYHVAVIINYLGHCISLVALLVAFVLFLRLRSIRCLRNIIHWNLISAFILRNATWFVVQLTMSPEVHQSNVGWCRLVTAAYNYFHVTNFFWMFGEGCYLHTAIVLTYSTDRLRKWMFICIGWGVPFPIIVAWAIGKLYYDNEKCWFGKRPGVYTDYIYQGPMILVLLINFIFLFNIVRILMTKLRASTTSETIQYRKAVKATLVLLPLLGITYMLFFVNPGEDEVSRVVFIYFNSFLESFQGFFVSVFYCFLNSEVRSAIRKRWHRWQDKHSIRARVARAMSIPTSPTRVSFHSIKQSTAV

[22] = biological target: Dopamien D1 receptor (Human) (Homo sapiens, UniProt P21728); assay: [3H]–SCH–23390 hydrochloride binding assay; conditions: 0.1 mM l-menthol; Human recombinant
[23] = biological target: Histamine H3 receptor (Human) (Homo sapiens, UniProt Q9Y5N1); assay: N-alpha-[3H]-Methylhistamine, Dihydrochloride binding assay; conditions: 0.1 mM l-menthol; Human recombinant
[24] = biological target: Muscarinic M3 receptor (Human) (Homo sapiens, UniProt P20309); type: binding; conditions: 0.1 mM l-menthol; Human recombinant
[25] = tested on: Nicotinic receptor (Human); assay: [3H]-; type: binding; conditions: 0.1 mM l-menthol; Human receptor (Non-recombinant)
[26] = biological target: Opiate μ receptor (Human) (Homo sapiens, UniProt P35372); assay: [3H]-Diprenorphine binding assay; conditions: 0.1 mM l-menthol; Human recombinant
[27] = biological target: Serotonin transporter (Human) (Homo sapiens, UniProt P31645); assay: [3H]-Imipramine hydrochloride binding assay; conditions: 0.1 mM l-menthol; Human recombinant
[28] = biological target: Testosterone receptor (Human) (Homo sapiens, UniProt P10275); assay: [3H]-Methyltrienolone; type: binding; conditions: 0.1 mM l-menthol
Testosterone receptor (Human), sequence (P10275 whole entry): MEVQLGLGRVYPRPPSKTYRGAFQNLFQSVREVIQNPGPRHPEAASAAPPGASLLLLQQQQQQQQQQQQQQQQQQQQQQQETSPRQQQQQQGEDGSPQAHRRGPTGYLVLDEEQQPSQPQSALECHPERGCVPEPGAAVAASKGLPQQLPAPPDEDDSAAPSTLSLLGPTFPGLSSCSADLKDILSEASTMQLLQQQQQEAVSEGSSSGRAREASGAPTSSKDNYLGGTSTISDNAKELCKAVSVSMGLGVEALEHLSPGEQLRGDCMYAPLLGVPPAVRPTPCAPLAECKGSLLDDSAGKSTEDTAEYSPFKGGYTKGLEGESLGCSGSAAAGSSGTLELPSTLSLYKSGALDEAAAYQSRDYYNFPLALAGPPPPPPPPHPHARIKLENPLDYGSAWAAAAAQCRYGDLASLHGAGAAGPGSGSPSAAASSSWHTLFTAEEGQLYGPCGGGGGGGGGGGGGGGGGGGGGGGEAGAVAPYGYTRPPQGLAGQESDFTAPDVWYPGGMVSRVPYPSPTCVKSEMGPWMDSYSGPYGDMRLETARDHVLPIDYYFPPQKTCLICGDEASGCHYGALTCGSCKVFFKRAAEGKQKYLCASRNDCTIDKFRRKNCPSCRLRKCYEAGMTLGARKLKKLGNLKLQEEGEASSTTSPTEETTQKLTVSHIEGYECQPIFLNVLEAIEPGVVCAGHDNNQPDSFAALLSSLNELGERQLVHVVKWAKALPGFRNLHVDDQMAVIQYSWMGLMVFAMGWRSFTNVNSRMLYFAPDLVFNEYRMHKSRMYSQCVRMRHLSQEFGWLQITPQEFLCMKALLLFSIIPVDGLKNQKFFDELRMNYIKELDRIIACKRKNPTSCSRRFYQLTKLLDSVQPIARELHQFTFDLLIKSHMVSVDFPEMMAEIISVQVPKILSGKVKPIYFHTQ

Vasopressin V1 receptor = Vasopressin V1 receptor (Rattus norvegicus, UniProt P30560); assay: [3H]-Vasopressin, 8-L-Arginine binding assay; conditions: 0.1 mM l-menthol; Rat liver
Vasopressin V1 receptor, sequence (P30560 whole entry): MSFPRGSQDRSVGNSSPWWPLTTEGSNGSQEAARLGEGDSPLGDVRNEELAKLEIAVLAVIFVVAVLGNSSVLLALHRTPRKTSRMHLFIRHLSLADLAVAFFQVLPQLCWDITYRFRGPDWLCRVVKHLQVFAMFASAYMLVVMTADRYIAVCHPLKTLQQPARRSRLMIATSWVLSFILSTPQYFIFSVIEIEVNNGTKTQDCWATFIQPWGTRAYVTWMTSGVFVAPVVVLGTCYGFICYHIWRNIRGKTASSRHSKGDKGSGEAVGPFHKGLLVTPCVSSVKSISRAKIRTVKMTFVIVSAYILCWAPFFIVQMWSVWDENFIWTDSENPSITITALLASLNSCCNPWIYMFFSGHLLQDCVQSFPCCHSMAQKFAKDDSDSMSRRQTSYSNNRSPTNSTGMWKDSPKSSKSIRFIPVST

Structure (SMILES): CC(C)[C@@H]1CC[C@@H](C)C[C@H]1O [l-menthol]
- Inhibition by l-Menthol (%) [1]: 28.19%
- Inhibition by l-Menthol (%) [2]: 24.78%
- Concentration dependence of inhibition of the [3H]-EBOB binding [3]: concentration-dependent
- Inhibition by l-Menthol (%) ([3]; 0.1 mM l-menthol, Rat cerebral cortex): 20.9%
- IC50 ([3]; read-out: IC50 for inhibition of the [3H]-EBOB binding, rat cerebral cortex preparation, 7 concentrations, duplicate): 554 µM
- Ki ([3]; read-out: Ki (mol/L), inhibition of the binding of [3H]-EBOB, GABAA (Picrotoxin site), Ki=IC50/(1+[L/Kd])): 0.000288 mol/L
- Inhibition by l-Menthol (%) [4]: 16.92%
- Inhibition by l-Menthol (%) (Leukotriene B4 receptor): 11.63%
- Inhibition by l-Menthol (%) [5]: 11.34%
- Inhibition by l-Menthol (%) [6]: 8.32%
- Inhibition by l-Menthol (%) [7]: 7.89%
- Inhibition by l-Menthol (%) [8]: 6.32%
- Inhibition by l-Menthol (%) [9]: 6.12%
- Inhibition by l-Menthol (%) (K channel KA): 5.11%
- Inhibition by l-Menthol (%) [10]: 4.86%
- Inhibition by l-Menthol (%) [11]: 4.65%
- Inhibition by l-Menthol (%) [12]: 3.79%
- Inhibition by l-Menthol (%) [13]: 3.74%
- Inhibition by l-Menthol (%) (CCK B receptor (Human)): 3.31%
- Inhibition by l-Menthol (%) (K Channel SkCa): 2.36%
- Inhibition by l-Menthol (%) [14]: 2.21%
- Inhibition by l-Menthol (%) (α1B-Adrenergic receptor): 1.76%
- Inhibition by l-Menthol (%) [15]: 1.17%
- Inhibition by l-Menthol (%) [16]: 0.86%
- Inhibition by l-Menthol (%) [17]: 0.66%
- Inhibition by l-Menthol (%) [18]: 0.37%
- Inhibition by l-Menthol (%) [19]: 0.3%
- Inhibition by l-Menthol (%) (IP3 receptor): 0.12%
- Inhibition by l-Menthol (%) [20]: 0%
- Inhibition by l-Menthol (%) [21]: 0%
- Inhibition by l-Menthol (%) (Ca Channel (Type N)): 0%
- Inhibition by l-Menthol (%) (CRF1 receptor (Human)): 0%
- Inhibition by l-Menthol (%) [22]: 0%
- Inhibition by l-Menthol (%) [23]: 0%
- Inhibition by l-Menthol (%) [24]: 0%
- Inhibition by l-Menthol (%) [25]: 0%
- Inhibition by l-Menthol (%) [26]: 0%
- Inhibition by l-Menthol (%) [27]: 0%
- Inhibition by l-Menthol (%) [28]: 0%
- Inhibition by l-Menthol (%) (Vasopressin V1 receptor): 0%

From publication PMC8237303 (Heliyon, 2021)
